# Experimental data reported in patent US9072734B2, “Quaternary ammonium salt compounds” (Teijin Pharma Limited, priority 2009, dated 2015).
# Structures can show the parent of a compound that is named as a salt.
# Key:
# [1] = molecular target: T1, human M3 muscarinic receptor (Homo sapiens, UniProt P20309); test: Inhibitory effect on methacholine-induced calcium influx, FLIPR assay, CHO-K1 cells stably expressing the human M3 muscarinic receptor; type: cell-based; conditions: inhibition of calcium influx induced by methacholine
# T1 construct: expressed in transfected cells; host or cells: CHO-K1
# T1 sequence (P20309 whole entry): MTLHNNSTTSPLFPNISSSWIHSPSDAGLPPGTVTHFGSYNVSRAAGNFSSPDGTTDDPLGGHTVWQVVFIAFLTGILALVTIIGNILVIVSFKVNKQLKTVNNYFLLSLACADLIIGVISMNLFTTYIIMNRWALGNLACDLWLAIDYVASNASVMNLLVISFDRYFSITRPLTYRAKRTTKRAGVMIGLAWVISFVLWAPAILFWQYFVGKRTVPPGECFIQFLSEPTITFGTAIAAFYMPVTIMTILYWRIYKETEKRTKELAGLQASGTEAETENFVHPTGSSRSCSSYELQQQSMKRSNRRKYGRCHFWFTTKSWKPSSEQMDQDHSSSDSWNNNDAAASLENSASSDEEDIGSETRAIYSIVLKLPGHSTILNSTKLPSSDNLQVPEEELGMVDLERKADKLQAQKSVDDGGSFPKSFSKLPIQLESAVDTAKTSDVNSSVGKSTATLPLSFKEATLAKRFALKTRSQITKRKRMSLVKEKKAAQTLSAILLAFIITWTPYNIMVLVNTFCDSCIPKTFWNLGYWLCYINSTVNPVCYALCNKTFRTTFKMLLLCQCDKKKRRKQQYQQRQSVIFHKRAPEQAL
# Source text: Muscarinic receptor subtypes (M1, M3 and M5 receptors), which couple to Gq proteins, activate the phospholipase C (PLC) pathway upon agonist binding to the receptor. As a result, the activated PLC hydrolyzes phosphatidyl inositol diphosphate (PIP2) to diacyl glycerol (DAG) and […] (IP3), which in turn generates calcium release from intracellular stores, i.e., endoplasmic and sarcoplasmic reticula. By utilizing FLIPR (Molecular Devices, Inc.) assay in which a calcium sensitive dye (Component A) is used that fluoresces when free calcium binds, the increase in intracellular calcium is measured on the basis of the change in the fluorescence intensity.
# Methacholine was added to CHO-K1 cells stably expressing the human M3 muscarinic receptor to induce calcium influx and evaluate the inhibitory effect of test compounds. In the experiment, a FLIPR Calcium assay kit (Molecular Devices, Inc.) was used.
# CHO-K1 cells stably expressing the human M3 muscarinic receptor suspended in Ham's F-12 media (Invitrogen, Co.) containing 10% fetal bovine serum (FBS) were seeded into 96-well FLIPR plates at a volume of 100 μL/well. Next day, 60 μL/well of Non-wash-dye solution (Hank's buffered salt solution, HBSS, containing 20 mM HEPES and 6.5 mM probenecid) was added to the cells, which were then incubated for an hour at 37° C. in the presence of 5% carbon dioxide. 20 μL of 10 concentrations of test compound solutions (HBSS containing 1% DMSO, 20 mM HEPES, 2.5 mM probenecid and 0.05% bovine serum albumin, BSA) prepared at concentrations in a range of 0.01-1000 nM with 2-fold serial dilution) were added, followed by incubation for 180 seconds. Then, 20 μL of 30 nM methacholine solution (HBSS containing 20 mM HEPES, 2.5 mM probenecid and 0.05% bovine serum albumin, BSA) was added, and fluorescence intensity was traced by the intracellular calcium influx measuring device FLIPR 96 (Molecular Devices, Inc.) for 170 seconds. The difference between the lowest and the highest values of the fluorescence intensity (FI) over the period of the measurement was used as a measured value. The percentages of inhibition by the test compounds were calculated according to the following formula from the measured value of the methacholin-added and test compound non-added sample (FIpositive), the measured value of the methacholin non-added and test compound non-added sample (FInegative), and the measured value of the methacholin-added and test compound-added sample (FItest). (%) Percentage of inhibition by test compound=[(1−(FItest−FInegative)/(FIpositive−FInegative)]×100
# The 50% inhibitory concentrations (IC50 values) of test compounds were analyzed by a four-parameter logistic model using XLfit4 (IDBS, Ltd.) for the percentage of the inhibition by different concentrations of test compounds.
# [2] = molecular target: T2, human β2 adrenergic receptor (Homo sapiens, UniProt P07550); test: Whole-cell cAMP Flashplate assay using CHO-K1 cells stably expressing human β2 adrenergic receptor; type: cell-based; conditions: cAMP production
# T2 construct: expressed in transfected cells; host or cells: CHO-K1
# T2 sequence (P07550 whole entry): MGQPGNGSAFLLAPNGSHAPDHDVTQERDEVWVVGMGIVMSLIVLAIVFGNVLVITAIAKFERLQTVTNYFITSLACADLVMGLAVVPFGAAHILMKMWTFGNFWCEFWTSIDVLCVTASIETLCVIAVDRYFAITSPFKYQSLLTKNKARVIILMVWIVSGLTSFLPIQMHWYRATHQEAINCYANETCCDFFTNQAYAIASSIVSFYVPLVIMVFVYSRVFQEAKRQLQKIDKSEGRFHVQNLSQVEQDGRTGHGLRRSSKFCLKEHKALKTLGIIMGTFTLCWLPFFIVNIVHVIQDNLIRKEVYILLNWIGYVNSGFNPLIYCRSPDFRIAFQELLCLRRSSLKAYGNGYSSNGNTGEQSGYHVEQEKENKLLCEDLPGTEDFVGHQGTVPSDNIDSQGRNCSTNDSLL
SMILES,IC50 [1] [nM],EC50 [2] [nM]
"COc1cc(NC(=O)CCCc2ccc(-c3ccccc3)c(NC(=O)O[C@@H]3C[C@@H]4[C@H]5O[C@H]5[C@H](C3)[N+]4(C)C)c2)ccc1CNC[C@H](O)c1ccc(O)c2[nH]c(=O)ccc12 [Example 36, (1R,2R,4S,5S,7S)-7-({[5-(3-{[4-({[(2R)-2-hydroxy-2-(8-hydroxy-2-oxo-1,2-dihydroquinolin-5-yl)ethyl]amino}methyl)-3-methoxyphenyl]carbamoyl}propyl)-2-phenylphenyl]carbamoyl}oxy)-9,9-dimethyl-3-oxa-9-azatricyclo[3.3.1.0^2,4]nonan-9-ium trifluoroacetate]",27.1,4.3
"C[N+]1(C)[C@@H]2CC(OC(=O)Nc3cc(CCCC(=O)Nc4ccc(CNC[C@H](O)c5ccc(O)c6[nH]c(=O)ccc56)cc4Cl)ccc3-c3ccccc3)C[C@H]1[C@@H]1O[C@@H]12 (stereo partly drawn) [Example 37, (1R,2R,4S,5S,7S)-7-({[5-(3-{[2-chloro-4-({[(2R)-2-hydroxy-2-(8-hydroxy-2-oxo-1,2-dihydroquinolin-5-yl)ethyl]amino}methyl)phenyl]carbamoyl}propyl)-2-phenylphenyl]carbamoyl}oxy)-9,9-dimethyl-3-oxa-9-azatricyclo[3.3.1.0^2,4]nonan-9-ium trifluoroacetate]",18.2,4
"COc1cc(CNC[C@H](O)c2ccc(O)c3[nH]c(=O)ccc23)ccc1NC(=O)CCCc1ccc(-c2ccccc2)c(NC(=O)OC2C[C@@H]3[C@H]4O[C@H]4[C@H](C2)[N+]3(C)C)c1 (stereo partly drawn) [Example 38, (1R,2R,4S,5S,7S)-7-({[5-(3-{[4-({[(2R)-2-hydroxy-2-(8-hydroxy-2-oxo-1,2-dihydroquinolin-5-yl)ethyl]amino}methyl)-2-methoxyphenyl]carbamoyl}propyl)-2-phenylphenyl]carbamoyl}oxy)-9,9-dimethyl-3-oxa-9-azatricyclo[3.3.1.0^2,4]nonan-9-ium trifluoroacetate]",15.6,10.6
"Cc1cc(CNC[C@H](O)c2ccc(O)c3[nH]c(=O)ccc23)ccc1NC(=O)CCCc1ccc(-c2ccccc2)c(NC(=O)O[C@@H]2C[C@@H]3[C@H]4O[C@H]4[C@H](C2)[N+]3(C)C)c1 [Example 39, (1R,2R,4S,5S,7S)-7-({[5-(3-{[4-({[(2R)-2-hydroxy-2-(8-hydroxy-2-oxo-1,2-dihydroquinolin-5-yl)ethyl]amino}methyl)-2-methylphenyl]carbamoyl}propyl)-2-phenylphenyl]carbamoyl}oxy)-9,9-dimethyl-3-oxa-9-azatricyclo[3.3.1.0^2,4]nonan-9-ium trifluoroacetate]",16,4
"COc1cc(CNC[C@H](O)c2ccc(O)c3[nH]c(=O)ccc23)ccc1NC(=O)CCc1ccc(-c2ccccc2)c(NC(=O)O[C@@H]2C[C@@H]3[C@H]4O[C@H]4[C@H](C2)[N+]3(C)C)c1 [Example 41, (1R,2R,4S,5S,7S)-7-({[5-(2-{[4-({[(2R)-2-hydroxy-2-(8-hydroxy-2-oxo-1,2-dihydroquinolin-5-yl)ethyl]amino}methyl)-2-methoxyphenyl]carbamoyl}ethyl)-2-phenylphenyl]carbamoyl}oxy)-9,9-dimethyl-3-oxa-9-azatricyclo[3.3.1.0^2,4]nonan-9-ium trifluoroacetate]",12.9,6.2
"COc1cc(NC(=O)CCc2ccc(-c3ccccc3)c(NC(=O)O[C@@H]3C[C@@H]4[C@H]5O[C@H]5[C@H](C3)[N+]4(C)C)c2)ccc1CNC[C@H](O)c1ccc(O)c2[nH]c(=O)ccc12 [Example 42, (1R,2R,4S,5S,7S)-7-({[5-(2-{[4-({[(2R)-2-hydroxy-2-(8-hydroxy-2-oxo-1,2-dihydroquinolin-5-yl)ethyl]amino}methyl)-3-methoxyphenyl]carbamoyl}ethyl)-2-phenylphenyl]carbamoyl}oxy)-9,9-dimethyl-3-oxa-9-azatricyclo[3.3.1.0^2,4]nonan-9-ium trifluoroacetate]",12.3,0.8
"Cc1cc(CNC[C@H](O)c2ccc(O)c3[nH]c(=O)ccc23)ccc1NC(=O)CCc1ccc(-c2ccccc2)c(NC(=O)OC2C[C@@H]3[C@H]4O[C@H]4[C@H](C2)[N+]3(C)C)c1 (stereo partly drawn) [Example 43, (1R,2R,4S,5S,7S)-7-({[5-(2-{[4-({[(2R)-2-hydroxy-2-(8-hydroxy-2-oxo-1,2-dihydroquinolin-5-yl)ethyl]amino}methyl)-2-methylphenyl]carbamoyl}ethyl)-2-phenylphenyl]carbamoyl}oxy)-9,9-dimethyl-3-oxa-9-azatricyclo[3.3.1.0^2,4]nonan-9-ium trifluoroacetate]",8.5,3
"C[N+]1(C)[C@@H]2CC(OC(=O)Nc3cc(CCC(=O)Nc4ccc(CNC[C@H](O)c5ccc(O)c6[nH]c(=O)ccc56)cc4Cl)ccc3-c3ccccc3)C[C@H]1[C@@H]1O[C@@H]12 (stereo partly drawn) [Example 44, (1R,2R,4S,5S,7S)-7-({[5-(2-{[2-chloro-4-({[(2R)-2-hydroxy-2-(8-hydroxy-2-oxo-1,2-dihydroquinolin-5yl)ethyl]amino}methyl)phenyl]carbamoyl}ethyl)-2-phenylphenyl]carbamoyl}oxy)-9,9-dimethyl-3-oxa-9-azatricyclo[3.3.1.0^2,4]nonan-9-ium trifluoroacetate]",13.9,1.7
"C[N+]1(C)[C@@H]2CC(OC(=O)Nc3cc(CCC(=O)Nc4ccc(CNC[C@H](O)c5ccc(O)c6[nH]c(=O)ccc56)c(Cl)c4)ccc3-c3ccccc3)C[C@H]1[C@@H]1O[C@@H]12 (stereo partly drawn) [Example 45, (1R,2R,4S,5S,7S)-7-({[5-(2-{[3-chloro-4-({[(2R)-2-hydroxy-2-(8-hydroxy-2-oxo-1,2-dihydroquinolin-5-yl)ethyl]amino}methyl)phenyl]carbamoyl}ethyl)-2-phenylphenyl]carbamoyl}oxy)-9,9-dimethyl-3-oxa-9-azatricyclo[3.3.1.0^2,4]nonan-9-ium trifluoroacetate]",26.5,4.1
"COc1cc(NC(=O)CCc2ccc(-c3ccccc3)c(NC(=O)O[C@@H]3C[C@@H]4[C@H]5O[C@H]5[C@H](C3)[N+]4(C)C)c2)c(Cl)cc1CNC[C@H](O)c1ccc(O)c2[nH]c(=O)ccc12 [Example 46, (1R,2R,4S,5S,7S)-7-({[5-(2-{[2-chloro-4-({[(2R)-2-hydroxy-2-(8-hydroxy-2-oxo-1,2-dihydroquinolin-5-yl)ethyl]amino}methyl)-5-methoxyphenyl]carbamoyl}ethyl)-2-phenylphenyl]carbamoyl}oxy)-9,9-dimethyl-3-oxa-9-azatricyclo[3.3.1.0^2,4]nonan-9-ium trifluoroacetate]",16.5,1.4
"CCOc1cc(NC(=O)CCc2ccc(-c3ccccc3)c(NC(=O)OC3C[C@@H]4[C@H]5O[C@H]5[C@H](C3)[N+]4(C)C)c2)ccc1CNC[C@H](O)c1ccc(O)c2[nH]c(=O)ccc12 (stereo partly drawn) [Example 47, (1R,2R,4S,5S,7S)-7-({[5-(2-{[4-({[(2R)-2-hydroxy-2-(8-hydroxy-2-oxo-1,2-dihydroquinolin-5-yl)ethyl]amino}methyl)-3-ethoxyphenyl]carbamoyl}ethyl)-2-phenylphenyl]carbamoyl}oxy)-9,9-dimethyl-3-oxa-9-azatricyclo[3.3.1.0^2,4]nonan-9-ium trifluoroacetate]",16.5,1.9
"COc1cc(NC(=O)CCCc2ccc(-c3ccccc3)c(NC(=O)OC3C[C@H]4CC[C@H](C3)[N+]4(C)C)c2)c(Cl)cc1CNC[C@H](O)c1ccc(O)c2[nH]c(=O)ccc12 (stereo partly drawn) [Example 48, (1R,3R)-3-{[5-(3-{[2-chloro-4-({[(2R)-2-hydroxy-2-(8-hydroxy-2-oxo-1,2-dihydroquinolin-5-yl)ethyl]amino}methyl)-5-methoxyphenyl]carbamoyl}propyl)-2-phenylphenyl]carbamoyl}oxy)-8,8-dimethyl-8-azabicyclo[3.2.1]nonan-8-ium trifluoroacetate]",21.7,0.4
"C[N+]1(C)CCC(OC(=O)Nc2cc(CCCCC(=O)Nc3ccc(CNC[C@H](O)c4ccc(O)c5[nH]c(=O)ccc45)cc3)ccc2-c2ccccc2)CC1 [Example 49, 4-({[5-(4-{[4-({[(2R)-2-hydroxy-2-(8-hydroxy-2-oxo-1,2-dihydroquinolin-5-yl)ethyl]amino}methyl)phenyl]carbamoyl}butyl)-2-phenylphenyl]carbamoyl}oxy)-1,1-dimethylpiperidin-1-ium trifluoroacetate]",13.9,2.3
